Measurements reported in ChEMBL document CHEMBL5528075, “Unleashing the Potential of Camptothecin: Exploring Innovative Strategies for Structural Modification and Therapeutic Advancements” (J Med Chem, 2024).
Values after ≈ are worked out from the molar mass of the structure shown. Values belong to the compound of their own block, whether it stands above or below them. Residues, ends and D or L forms follow the SMILES beside them. *: point of attachment. X1 = CC[C@@]1(OCCS*)C(=O)OCc2c1cc1n(c2=O)Cc2cc3ccccc3nc2-1

Columns and labels:
HCT-116 [1] = test: cells; conditions: Homo sapiens, HCT-116, 72 h
Description: Cytotoxicity against human HCT-116 cells assessed as reduction in cell growth incubated for 72 hrs by MTT assay

A549 [2] = test: Antiproliferative activity against human A549 cells assessed as reduction in cell viability measured after 72 hrs by MTT assay; type: functional, cell-based; conditions: A549, 72 h
HepG2 [3] = test: Cytotoxicity against human HepG2 cells assessed as reduction in cell growth incubated for 72 hrs by MTT assay; type: functional, cell-based; conditions: HepG2, 72 h
[4] = Antiproliferative activity against human HCT116-SN6 cells assessed as reduction in cell viability measured after 72 hrs by MTT assay; type: functional, cell-based; conditions: HCT116-SN6, 72 h
HeLa [5] = test: cells; conditions: Homo sapiens, 72 h
Description: Cytotoxicity against human HeLa cells assessed as reduction in cell growth incubated for 72 hrs by MTT assay

[6] = Antiproliferative activity against human HCT116-G7 cells assessed as reduction in cell viability measured after 72 hrs by MTT assay; type: functional, cell-based; conditions: HCT116-G7, 72 h
HCT-116 [7] = test: Antiproliferative activity against human HCT-116 cells assessed as reduction in cell viability measured after 72 hrs by MTT assay; type: functional, cell-based; conditions: HCT-116, 72 h
A549 [8] = test: cells; conditions: Homo sapiens, A549, 72 h
Description: Cytotoxicity against human A549 cells assessed as reduction in cell growth incubated for 72 hrs by MTT assay

HeLa [9] = test: cells; conditions: Homo sapiens, 24 h
Description: Cytotoxicity against human HeLa cells assessed as reduction in cell viability measured for 24 hrs by SRB assay

L1210 [10] = test: Cytotoxicity against mouse L1210 cells assessed as reduction in cell viability measured for 24 hrs by SRB assay; type: functional, cell-based; conditions: L1210, 24 h
HCT-116 [11] = test: Antitumor activity against human HCT-116 cells xenografted in mouse assessed as tumor growth inhibition at 5 mg/kg administered once for every 2 days for 2 weeks relative to control; type: functional; design: scale not given: the % may be the effect or the level left; conditions: time 2 day
[12] = Aqueous solubility of compound at pH6.5; type: physicochemical; conditions: pH 6.5
[13] = Stability in human plasma assessed as half life measured upto 24 hrs by UV/LC-MS analysis; type: ADME, cell-free
[14] = Drug recovery in bile duct cannulated rat urine measured for 48 hrs
[15] = Drug recovery in bile duct cannulated rat bile measured for 48 hrs
Neutrophil elastase [16] = target: T1, Neutrophil elastase (Mus musculus, UniProt Q3UP87); test: Inhibition of mouse Neutrophil elastase
T1 sequence (Q3UP87 whole entry): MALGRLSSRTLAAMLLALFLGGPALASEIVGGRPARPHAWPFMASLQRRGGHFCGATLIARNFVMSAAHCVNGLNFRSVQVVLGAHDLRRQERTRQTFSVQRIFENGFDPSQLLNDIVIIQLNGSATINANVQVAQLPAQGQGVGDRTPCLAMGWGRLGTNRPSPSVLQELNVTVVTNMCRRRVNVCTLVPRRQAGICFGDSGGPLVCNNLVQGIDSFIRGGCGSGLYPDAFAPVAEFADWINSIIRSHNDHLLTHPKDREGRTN

Neutrophil elastase [17] = target: T2, Neutrophil elastase (Homo sapiens, UniProt P08246); test: Inhibition of human Neutrophil elastase
T2 sequence (P08246 whole entry): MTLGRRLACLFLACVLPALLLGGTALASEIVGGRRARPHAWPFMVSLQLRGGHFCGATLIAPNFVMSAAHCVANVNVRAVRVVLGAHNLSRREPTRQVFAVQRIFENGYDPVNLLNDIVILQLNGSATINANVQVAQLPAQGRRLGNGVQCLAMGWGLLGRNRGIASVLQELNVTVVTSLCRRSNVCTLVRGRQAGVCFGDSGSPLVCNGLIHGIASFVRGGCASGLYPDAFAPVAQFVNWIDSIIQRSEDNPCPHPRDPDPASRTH

L1210 [18] = test: Antiproliferative activity against mouse L1210 cells assessed as inhibition of cell growth incubated for 24 hrs by MTT assay; type: functional, cell-based; conditions: L1210, 24 h
K562 = test: Antiproliferative activity against human K562 cells assessed as reduction in cell viability measured for 48 hrs by CCK-8 assay; type: functional, cell-based; conditions: K562, 48 h
HeLa [19] = test: Antiproliferative activity against human HeLa cells assessed as reduction in cell viability measured for 48 hrs by CCK-8 assay; type: functional, cell-based
HepG2 [20] = test: Antiproliferative activity against human HepG2 cells assessed as reduction in cell viability measured for 48 hrs by CCK-8 assay; type: functional, cell-based; conditions: HepG2, 48 h

IC50 (HeLa [9]): 122 nM
SMILES: CCc1c2c(nc3ccc(OC(=O)N4CCC(N5CCCCC5)CC4)cc13)-c1cc3c(c(=O)n1C2)COC(=O)[C@]3(O)CC [IRINOTECAN]
IC50 (L1210 [10]): 1200 nM

IC50 (L1210 [18]): 56 nM | IC50 (K562): 500 nM | IC50 (HeLa [19]): 376 nM | IC50 (HepG2 [20]): 60 nM
SMILES: CC[C@@]1(O)C(=O)OCc2c1cc1n(c2=O)Cc2cc3c(CN(C)C)c(O)ccc3nc2-1 [TOPOTECAN]

Further lines, the compound ahead of its results:

SMILES: CC[C@@]1(O)C(=O)OCc2c1cc1n(c2=O)Cc2cc3cc4c(cc3nc2-1)OCO4
IC50 (HCT-116 [1]): 0.05 µg/mL (≈ 0.127 µM) | EC50 (A549 [2]): 0.86 nM | IC50 (HepG2 [3]): 0.104 µg/mL (≈ 0.265 µM) | EC50 [4]: 2.28 nM | IC50 (HeLa [5]): 0.04 µg/mL (≈ 0.102 µM) | EC50 [6]: 4.14 nM | EC50 (HCT-116 [7]): 0.36 nM | IC50 (A549 [8]): 0.043 µg/mL (≈ 0.11 µM)

SMILES: CC[C@H](C)[C@H](NC(=O)[C@H](CCCCN)NC(=O)[C@H](CCCCN)NC(=O)[C@H](C)NC(=O)[C@H](CC(C)C)NC(=O)[C@H](C)NC(=O)[C@H](C)NC(=O)[C@H](CC(C)C)NC(=O)[C@@H](NC(=O)[C@H](CCCCN)NC(=O)[C@H](CC(C)C)NC(=O)[C@H](CC(N)=O)NC(=O)[C@H](CCCCN)NC(=O)[C@H](CCCCN)NC(=O)[C@H](CC(C)C)NC(=O)[C@H](CC(C)C)NC(=O)[C@@H](N)CCCCN)C(C)C)C(=O)N[C@@H](CC(C)C)C(=O)NCC(=O)NCC(=O)N[C@@H](CSSCCO[C@]1(CC)C(=O)OCc2c1cc1n(c2=O)Cc2cc3ccccc3nc2-1)C(N)=O (H-KLLKKNLKVLAALAKKILGGC(X1)-NH2)
Activity (HCT-116 [11]): 98.2% | solubility [12]: 1.83 µM (≈ 4.81 µg/mL) | half-life [13]: 2.5 h

SMILES: CCCNC(=O)Nc1cccc(S(=O)(=O)Nc2cccc([C@@H](CC(=O)[O-])NC(=O)Nc3ccc(NC(=O)NCCOCCOCCOCCC(=O)N[C@@H](CC(=O)[O-])C(=O)N4CCC[C@H]4C(=O)N[C@H](C(=O)O[C@]4(CC)C(=O)OCc5c4cc4n(c5=O)Cc5c-4nc4ccccc4c5CC)C(C)C)cc3)c2)c1.[Na+].[Na+]
dose excreted at 48 h [14]: 2.4% | dose excreted at 48 h [15]: 108% | IC50 (Neutrophil elastase [16]): 8900 nM | IC50 (Neutrophil elastase [17]): 9600 nM
